Results reported in paper PMC6429600, “Development of a dual-functional conjugate of antigenic peptide and Fc-III mimetics (DCAF) for targeted antibody blocking” (Chemical Science, 2019).

Experiments:
[1] = molecular target: Ab1 (4G2 antibody); experiment: SPR binding to immobilized Ab1; parameters: species or system mouse; conditions: BIAcore T200, Ab1 immobilized on CM5 chip, PBS with 0.005% surfactant P20, 30 μl/min, mean ± SD (n = 3), read-out: Kd of Ab1 binding (apparent Kd for DCAF)
Experimental: (§1) Surface plasmon resonance (SPR) experiments were performed using a BIAcore T200 instrument (GE healthcare) equipped with a CM5 sensor chip. Briefly, Ab1, Ab2 or Ab3 were directly immobilized onto a CM5 sensor chip using an EDC/NHS amine coupling kit. A blank channel was used as the negative control. For SPR measurements, all peptides were directly dissolved in running buffer (PBS with 0.005% surfactant P20). The analytes were injected and disassociated with immobilized IgG at a flow rate of 30 μl min^–1. After each binding and dissociation cycle, the surface of a sensor chip was regenerated using 10 mM glycine-HCl buffer (pH 2.0). The sensorgrams were corrected by subtraction of the signal from the negative control flow path and curve-fitted to calculate the reaction rate and constants using Evaluation 1.0 software.

[2] = molecular target: Ab2 (monoclonal antibody raised against pep2); experiment: SPR binding to immobilized Ab2; parameters: species or system mouse; conditions: BIAcore T200, Ab2 immobilized on CM5 chip, PBS with 0.005% surfactant P20, mean ± SD (n = 3), read-out: Kd of Ab2 binding (apparent Kd for DCAF)
Experimental: as §1

[3] = molecular target: Ab3 (monoclonal antibody raised against pep3); experiment: SPR binding to immobilized Ab3; parameters: species or system mouse; conditions: BIAcore T200, Ab3 immobilized on CM5 chip, PBS with 0.005% surfactant P20, mean ± SD (n = 3), read-out: Kd of Ab3 binding (apparent Kd for DCAF)
Experimental: as §1

[4] = system: Ab2; experiment: ELISA competition assay of Ab2 binding to GST-fused pep2; type: biochemical, mouse; conditions: sandwich ELISA, GST-fused pep2, Ab2 10 nM, OD450
Experimental: A standard sandwich ELISA assay was used for competition experiment. Briefly, 96-well microtiter plates were coated overnight with anti-GST antibody (10 nM) at 4 °C and blocked with 200 μL of 1% BSA in PBS at room temperature for 1 h. Then the artificial antigen (0.5 nM), pep2 coupled with the GST protein, was added to the wells and incubated for 2 h at RT. The plates were washed with PBS/0.05% Tween 20, and Ab2 (10 nM) or Ab2 (10 nM) plus other ligands, antigen, Fc-III or DCAF2 at series concentrations, were added and incubated for 2 h at RT. […] For a C1q binding assay, rat C1q ELISA kit was used following the protocol of the manufacturer. Briefly, incubated 25 ng mL^–1 C1q and series concentrations of Ab4 or DCAF4 with a pre-coated C1q capture antibody for 2 h at RT. Then HRP linked detection antibody was added for 1 h at RT and the TMB substrate was used to measure the concentration of C1q at OD450.

[5] = molecular target: Ab4 (mAb35 antibody); experiment: SPR binding to immobilized Ab4; conditions: mean ± SD (n = 3), read-out: Kd of Ab4 binding (apparent Kd for DCAF)
[6] = molecular target: mAb35 (Ab4), commercial antibody that blocks the acetylcholine receptor; experiment: SPR
[7] = molecular target: 4G2 antibody (Ab1), ADE-inducible mouse monoclonal IgG (mouse); experiment: SPR; BIAcore T200; antibody (IgG) immobilised on a CM5 chip by EDC/NHS amine coupling; peptides as analytes in PBS with 0.005% surfactant P20, 30 ul/min; regeneration 10 mM glycine-HCl pH 2.0; apparent Kd for DCAF, bivalent fit gives Kd1 and Kd2

## CC(C)C[C@@H]1NC(=O)[C@H](Cc2c[nH]cn2)NC(=O)[C@H](Cc2c[nH]c3ccccc23)NC(=O)[C@H](C)NC(=O)[C@@H](NC(=O)[C@@H](N)CC(=O)O)CSSC[C@@H](C(=O)N[C@H](C(=O)O)[C@@H](C)O)NC(=O)[C@H](Cc2c[nH]c3ccccc23)NC(=O)[C@H](C(C)C)NC(=O)[C@H](CC(C)C)NC(=O)[C@H](CCC(=O)O)NC(=O)CNC1=O [Fc-III]
[1]
  Kd: 239 ± 2 nM
[2]
  Kd: 169 ± 18 nM
[3]
  Kd: 134 ± 6 nM
[4]
  inhibition of antigen–antibody (pep2–Ab2) binding: did not inhibit

## CC(C)C[C@@H]1NC(=O)[C@H](Cc2c[nH]cn2)NC(=O)[C@H](Cc2c[nH]c3ccccc23)NC(=O)[C@H](C)NC(=O)[C@@H]2CSSC[C@H](NC(=O)[C@H](Cc3c[nH]c4ccccc34)NC(=O)[C@H](C(C)C)NC(=O)[C@H](CC(C)C)NC(=O)[C@H](CCC(=O)O)NC(=O)CNC1=O)C(=O)N[C@@H]([C@@H](C)O)C(=O)N[C@H](C(=O)O)CSSC[C@H](N)C(=O)N[C@@H](CC(=O)O)C(=O)N2 [Fc-III-4C]
[5]
  Kd: 13.99 ± 0.03 nM

## Fc-III-4C peptide
[6]
  Kd: 14 nM

## Fc-III peptide
[7]
  Kd: 239 nM
